Measured values as given in paper PMC2931804 (Clinical cancer research : an official journal of the …, 2010).
“Also recorded” adds a separate entry of the source.

Legend:
thymidylate synthase [1] = experiment: Tumor thymidylate synthase expression by RT-PCR in liver metastasis biopsies; assay type: in vivo, human; details: posttreatment biopsies at the MTD levels
thymidylate synthase [2] = details: in vitro and in vivo models, quantitative-PCR analysis; cited from earlier work
[3] = FU plasma pharmacokinetics; assay type: in vivo, human; details: at the MTD
[4] = tested on: dihydropyrimidine dehydrogenase (DPD); experiment: DPD activity assay in peripheral blood mononuclear cells; assay type: in vivo, human

SMILES: O=C(CCCCCCC(=O)Nc1ccccc1)NO [vorinostat, suberoylanilide hydroxamic acid]
- Impact of vorinostat on intratumoral thymidylate synthase expression (thymidylate synthase [1]): No definitive impact; also recorded: no clear signs of thymidylate synthase downregulation
- Downregulation of thymidylate synthase expression (thymidylate synthase [2]): ≤ 100 fold
- Pharmacokinetic interactions between vorinostat and FU [3]: No pharmacokinetic interactions
- Mean DPD level ([4]; once-daily MTD arm, four patients, day 2 of cycle 1, baseline 0.189): 0.142 nmol/min/mg protein
- Mean DPD level ([4]; once-daily MTD arm, four patients, day 3 of cycle 1, baseline 0.189): 0.138 nmol/min/mg protein
- Mean DPD level ([4]; once-daily MTD arm, four patients, day 7 of cycle 1, baseline 0.189): 0.126 nmol/min/mg protein
- Mean DPD level ([4]; twice-daily MTD arm, three patients, day 2 of cycle 1, baseline 0.253): 0.199 nmol/min/mg protein
- Mean DPD level ([4]; twice-daily MTD arm, three patients, day 3 of cycle 1, baseline 0.253): 0.138 nmol/min/mg protein
- Mean DPD level ([4]; twice-daily MTD arm, three patients, day 7 of cycle 1, baseline 0.253): 0.198 nmol/min/mg protein
- Differences in DPD levels over time ([4]; within once-daily or twice-daily cohorts, one way ANOVA (P > 0.05)): not statistically significant
